Literature values in patent publication US10583082B2, “Composition comprising at least two dry powders obtained by spray drying to increase the stability of the formulation” (Eratech S.R.L., priority 2013, dated 2020).

Conditions: from US 2001/0036481 A1

phospholipid transition temperature (Tg) with humidity [°C] | SMILES
41 | CCCCCCCCCCCCCCCC(=O)OC[C@H](COP(=O)([O-])OCC[N+](C)(C)C)OC(=O)CCCCCCCCCCCCCCC [DPPC, dipalmitoylphosphatidylcholine]
63 | CCCCCCCCCCCCCCCC(=O)OCC(COP(=O)(O)OCCN)OC(=O)CCCCCCCCCCCCCCC (stereo not drawn) [DPPE, dipalmitoylphosphatidylethanolamine]
55 | CCCCCCCCCCCCCCCCCC(=O)OC[C@H](COP(=O)([O-])OCC[N+](C)(C)C)OC(=O)CCCCCCCCCCCCCCCCC [DSPC, distearoylphosphatidylcholine]
